The record followed here is patent US20090105292A9, “Glucocorticoid Receptor Modulator Compounds and Methods” (LIGAND PHARMACEUTICALS INCORPORATED, priority 2004, published 2009).

The experiment has as its target T1, human glucocorticoid receptor protein (GR) (Homo sapiens, UniProt P04150).
T1 construct: made in house; host or cells: Spodoptera frugiperda Sf21 insect cells (baculovirus)
T1 sequence (P04150 1-777): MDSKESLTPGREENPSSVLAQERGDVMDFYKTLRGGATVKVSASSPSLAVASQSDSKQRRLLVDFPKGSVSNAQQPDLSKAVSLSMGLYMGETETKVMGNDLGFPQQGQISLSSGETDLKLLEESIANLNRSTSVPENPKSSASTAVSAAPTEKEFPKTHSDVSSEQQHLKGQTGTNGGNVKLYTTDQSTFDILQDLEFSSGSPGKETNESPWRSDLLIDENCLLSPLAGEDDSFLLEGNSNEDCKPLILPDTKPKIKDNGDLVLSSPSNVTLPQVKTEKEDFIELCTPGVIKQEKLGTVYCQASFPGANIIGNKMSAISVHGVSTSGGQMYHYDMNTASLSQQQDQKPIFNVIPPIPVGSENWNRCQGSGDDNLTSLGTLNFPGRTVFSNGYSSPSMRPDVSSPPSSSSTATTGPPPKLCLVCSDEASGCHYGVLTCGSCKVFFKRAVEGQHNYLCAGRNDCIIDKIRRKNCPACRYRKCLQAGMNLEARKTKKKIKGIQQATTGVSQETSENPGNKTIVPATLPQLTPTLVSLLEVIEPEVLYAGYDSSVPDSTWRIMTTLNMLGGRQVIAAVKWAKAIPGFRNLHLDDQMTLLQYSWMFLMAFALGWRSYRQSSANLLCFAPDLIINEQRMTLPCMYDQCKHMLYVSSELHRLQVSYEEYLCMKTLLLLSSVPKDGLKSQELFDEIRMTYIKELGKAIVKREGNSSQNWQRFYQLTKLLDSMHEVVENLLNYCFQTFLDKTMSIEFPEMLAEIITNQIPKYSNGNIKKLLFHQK
Kind of experiment: Glucocorticoid receptor binding assay ([3H]dexamethasone competition, GR lysate). As to the method: A baculovirus expression plasmid containing cDNA encoding the human glucocorticoid receptor protein (GR) was prepared using standard techniques. […] That expression plasmid was co-transfected together with wild type Autographa californica multiple nuclear polyhedrosis virus DNA into Spodopter frugiperda-21 (Sf-21) cells to generate recombinant virus containing GR cDNA. See e.g., O'Reilly, D. R., Miller, L. K., Luckow, V. A., Regulation of expression of a baculovirus ecdysteroid UDP glucosyltransferase gene. […] That recombinant virus containing GR cDNA was collected.
A suspension culture of uninfected Sf21 cells was grown to a density of 1.2×10^6 cells/ml and then infected with the recombinant virus containing GR cDNA at a multiplicity of infection of 2. Those infected Sf21 cells were incubated for 48 hours and then collected by centrifugation at 1000×g for 10 minutes at 4° C. The resulting cell pellets were resuspended in lysis buffer (50 mM Potassium Phosphate buffer, pH 7.0, 10 mM Monothioglycerol, 5 mM DTT, 20 mM Sodium Molybdate, 1 mM PMSF, 1 μg/mL aprotinin, and 10 μg/mL leupeptin) and incubated for 15 minutes on ice. Those resuspended cell pellets were homogenized using a Dounce homogenizer and a B pestle. A volume of 2 M KCl was added to the homogenized cell pellets to a final concentration of 0.4 M. The resulting GR lysates were centrifuged at 100,000×g for 60 min at 4° C. and stored for use in binding assays.
Binding assay samples were prepared in separate mini-tubes in a 96-well format at 4° C. Each binding assay sample was prepared in a volume of 250 μL of Assay Buffer (10% glycerol, 25 mM sodium phosphate, 10 mM potassium fluoride, 10 mM sodium molybdate, 0.25 mM CHAPS, 2 mM DTT and 1 mM EDTA, (adjusted to pH 7.5)) containing 50 μg of GR lysate; 2-4 nM of [^3H]dexamethasone at 84 Ci/mmol; and either a reference compound or a test compound. […] Each reference compound and test compound was assayed at varying concentrations, ranging from 0 to 10^−5 M. Each concentration of each reference compound and each test compound was assayed in triplicate. The assay samples were incubated for 16 hours at 4° C.
The assay samples were then centrifuged and the supernatants were discarded. The resulting pellets were washed twice with assay buffer lacking DTT. Radioactivity in counts per minute (CPM) of each washed pellet was determined by liquid scintillation counter (MicroBeta™, Wallach).
Specific binding for a particular sample was calculated using the equation: (Sample CPM)−(Average Non-specific CPM)
Average Non-specific CPM was defined as the amount of radioactivity from samples containing an excess (i.e. 1000 nM) of unlabeled dexamethasone. […] Ki values were determined using the Cheng-Prusoff equation using a previously determined Kd value for dexamethasone: Ki=IC50/(1+[L]/Kd)
[L]=concentration of labeled dexamethasone
Kd=dissociation constant of labeled dexamethasone

The mark [1] stands for this setting: competition with 2-4 nM [3H]dexamethasone, 16 hours at 4° C., Cheng-Prusoff, read-out: Ki.

Read-outs that look alike come from different tables or passages of the source.

A word on the Ki: it is a measure of affinity in units of concentration, obtained from inhibition or displacement. Take `C=Cc1ccc(/C=C2\Oc3ccc(O)c(OC)c3-c3ccc4c(c32)C(C)=CC(C)(C)N4)cc1` [Compound 63, (Z)-5-(4′-vinylbenzylidene)-1,2-dihydro-9-hydroxy-10-methoxy-2,2,4-trimethyl-5H-chromeno[3,4-f]quinoline]: the Ki under setting [1] fell in the range of 1 to 2 nM.
On the same count and under the same terms, the result for `COc1c(O)ccc2c1-c1ccc3c(c1/C(=C/c1ccc4c(c1)OCO4)O2)C(C)=CC(C)(C)N3` [Compound 67, (Z)-5-(3′,4′-methylenedioxybenzylidene)-1,2-dihydro-9-hydroxy-10-methoxy-2,2,4-trimethyl-5H-chromeno[3,4-f]quinoline] reads less than 1 nM.
Same read-out and setting: the result for `CCN(CC)C(=O)c1ccccc1/C=C1\Oc2ccc(O)c(OC)c2-c2ccc3c(c21)C(C)=CC(C)(C)N3` [Compound 75, (Z)-5-(2′-diethylaminocarbonylbenzylidene)-1,2-dihydro-9-hydroxy-10-methoxy-2,2,4-trimethyl-5H-chromeno[3,4-f]quinoline] reads less than 1 nM.
Still for that read-out and setting: the value for `COc1c(O)ccc2c1-c1ccc3c(c1/C(=C/c1cccc(OCCF)c1)O2)C(C)=CC(C)(C)N3` [Compound 86, (Z)-5-(3′-(2″-fluoroethoxy)benzylidene)-1,2-dihydro-9-hydroxy-10-methoxy-2,2,4-trimethyl-5H-chromeno[3,4-f]quinoline] was 1 to 2 nM.
As for `COc1c(O)ccc2c1-c1ccc3c(c1/C(=C/c1ccccc1C(=O)N1CCCC1)O2)C(C)=CC(C)(C)N3` [Compound 90, (Z)-5-(2′-(pyrrolidinecarbonyl)benzylidene)-1,2-dihydro-9-hydroxy-10-methoxy-2,2,4-trimethyl-5H-chromeno[3,4-f]quinoline], under setting [1], the Ki is less than 1 nM.
As to `COc1c(O)ccc2c1-c1ccc3c(c1/C(=C/c1ccc(F)cc1S(=O)(=O)N(C)C)O2)C(C)=CC(C)(C)N3` [Compound 103, (Z)-5-(2′-dimethylaminosulphonyl-4′-fluorobenzylidene)-1,2-dihydro-9-hydroxy-10-methoxy-2,2,4-trimethyl-5H-chromeno[3,4-f]quinoline], under setting [1], the inhibition constant Ki was 1 to 2 nM.
For the compound `COc1c(O)ccc2c1-c1ccc3c(c1/C(=C/c1ccccc1C#N)O2)C(C)=CC(C)(C)N3` [Compound 107, (Z)-5-(2′-cyanobenzylidene)-1,2-dihydro-9-hydroxy-10-methoxy-2,2,4-trimethyl-5H-chromeno[3,4-f]quinoline], the inhibition constant (Ki) under setting [1] was less than 1 nM.
The same measure, in the same setting: the result for `COc1c(O)ccc2c1-c1ccc3c(c1/C(=C/c1cccc4ccccc14)O2)C(C)=CC(C)(C)N3` [Compound 111, (Z)-5-(1′-naphthylmethylidene)-1,2-dihydro-9-hydroxy-10-methoxy-2,2,4-trimethyl-5H-chromeno[3,4-f]quinoline] reads more than 3 nM; that for `COc1c(O)ccc2c1-c1ccc3c(c1/C(=C/c1sccc1C(=O)N(C)C)O2)C(C)=CC(C)(C)N3` [Compound 132, (Z)-5-(2′-(3′-(dimethylaminocarbonyl)thienylmethylidene))-1,2-dihydro-9-hydroxy-10-methoxy-2,2,4-trimethyl-5H-chromeno[3,4-f]quinoline], 1 to 2 nM.
As to `CCN(C)C(=O)c1ccsc1/C=C1\Oc2ccc(O)c(OC)c2-c2ccc3c(c21)C(C)=CC(C)(C)N3` [Compound 134, (Z)-5-(2′-(3′-(ethylmethylaminocarbonyl)thienylmethylidene))-1,2-dihydro-9-hydroxy-10-methoxy-2,2,4-trimethyl-5H-chromeno[3,4-f]quinoline], the Ki under setting [1] was less than 1 nM.
Still for that read-out and setting: the result for `COCCN(CCOC)C(=O)c1ccsc1/C=C1\Oc2ccc(O)c(OC)c2-c2ccc3c(c21)C(C)=CC(C)(C)N3` [Compound 138, (Z)-5-(2′-(3′-(di(methoxyethyl)aminocarbonyl)thienylmethylidene))-1,2-dihydro-9-hydroxy-10-methoxy-2,2,4-trimethyl-5H-chromeno[3,4-f]quinoline] reads 1 to 2 nM.
Still for that read-out and setting: the value for `COc1c(O)ccc2c1-c1ccc3c(c1/C(=C/c1ccc(C(=O)N4CCCC4)s1)O2)C(C)=CC(C)(C)N3` [Compound 143, (Z)-5-(2′-(5′-(pyrrolidinocarbonyl)thienylmethylidene))-1,2-dihydro-9-hydroxy-10-methoxy-2,2,4-trimethyl-5H-chromeno[3,4-f]quinoline] was 1 to 2 nM.
Regarding `COc1c(O)ccc2c1-c1ccc3c(c1/C(=C/c1oc(C)cc1C(=O)N(C)C)O2)C(C)=CC(C)(C)N3` [Compound 146, (Z)-5-(2′-(3′-dimethylaminocarbonyl-5H-methylfuranylmethylidene))-1,2-dihydro-9-hydroxy-10-methoxy-2,2,4-trimethyl-5H-chromeno[3,4-f]quinoline], the Ki was more than 3 nM.
Turning to `COc1c(O)ccc2c1-c1ccc3c(c1/C(=C/c1oc(C)cc1C(=O)N1CCCCC1)O2)C(C)=CC(C)(C)N3` [Compound 151, (Z)-5-(2′-(5′-Methyl-3′-(piperidinecarbonyl)furanylmethylidene))1,2-dihydro-9-hydroxy-10-methoxy-2,2,4-trimethyl-5H-chromeno[3,4-f]quinoline], under setting [1], the Ki was 1 to 2 nM.
Same read-out and setting: the result for `COc1c(O)ccc2c1-c1ccc3c(c1/C(=C/c1cccc(C)c1C(=O)N1CCCC1)O2)C(C)=CC(C)(C)N3` [Compound 154, (Z)-5-(3′-Methyl-2′-(pyrrolidinecarbonyl)benzylidene)1,2-dihydro-9-hydroxy-10-methoxy-2,2,4-trimethyl-5H-chromeno[3,4-f]quinoline] reads more than 3 nM; that for `COc1c(O)ccc2c1-c1ccc3c(c1/C(=C/c1sccc1CO)O2)C(C)=CC(C)(C)N3` [Compound 157, (Z)-5-(2′-(3′-Hydroxymethylthienylmethylidene))1,2-dihydro-9-hydroxy-10-methoxy-2,2,4-trimethyl-5H-chromeno[3,4-f]quinoline], less than 1 nM; that for `COc1c(O)ccc2c1-c1ccc3c(c1/C(=C/c1ccccc1CO)O2)C(C)=CC(C)(C)N3` [Compound 159, (Z)-5-(2′-Hydroxymethylbenzylidene)1,2-dihydro-9-hydroxy-10-methoxy-2,2,4-trimethyl-5H-chromeno[3,4-f]quinoline], 1 to 2 nM.
Same read-out and setting: the result for `COc1c(O)ccc2c1-c1ccc3c(c1/C(=C/c1sccc1CN(C)C)O2)C(C)=CC(C)(C)N3` [Compound 166, (Z)-5-(2′-(3′-(Dimethylaminomethyl)thienylmethylidene))1,2-dihydro-9-hydroxy-10-methoxy-2,2,4-trimethyl-5H-chromeno[3,4-f]quinoline] reads 2 to 3 nM.
For `C=CCO/N=C(\C)c1ccsc1/C=C1\Oc2ccc(O)c(OC)c2-c2ccc3c(c21)C(C)=CC(C)(C)N3` [Compound 178, (Z)-5-(2′-(3′-((E)-1″-Allyloxyiminoethyl)thienylmethylidene))1,2-dihydro-9-hydroxy-10-methoxy-2,2,4-trimethyl-5H-chromeno[3,4-f]quinoline], the Ki under setting [1] was in the range of 1 to 2 nM.
The same measure, in the same setting: the result for `C=CCO/N=C(/C)c1ccsc1/C=C1\Oc2ccc(O)c(OC)c2-c2ccc3c(c21)C(C)=CC(C)(C)N3` [Compound 179, (Z)-5-(2′-(3′-((Z)-1″-Allyloxyiminoethyl)thienylmethylidene))1,2-dihydro-9-hydroxy-10-methoxy-2,2,4-trimethyl-5H-chromeno[3,4-f]quinoline] reads 1 to 2 nM.
